Results reported in PMC11277004, “Di- and Triselenoesters—Promising Drug Candidates for the Future Therapy of Triple-Negative Breast Cancer” (International Journal of Molecular Sciences, 2024).

Experiments:
Type in all cases: cell-based, human
[1] = Viability (MTT) and DNA biosynthesis, summary statements over the tested cell lines; conditions: human; MTT, 24 h; range over the tested cell lines; read-out: IC50, cytotoxic activity (range over cell lines)
Method: The MTT assay was used to determine the cytotoxic effects of the compounds in the study on MCF-7 and MDA-MB-231 breast cancer cells as well as MCF-10A normal human breast epithelial cells based on Carmichael’s method. All cultured cell lines were treated with varied concentrations of the tested compounds in the medium (0.5–5 µM) and incubated for 24 h in an incubator providing optimal conditions for cell culture growth (37 °C temperature, 5% CO2, and 90–95% humidity) in 6-well plates (baseline seeding density: 5 × 10^5 cells/well). After this time, the medium was removed, and the cell monolayer was washed with warm phosphate-buffered saline (PBS) without calcium and magnesium. In the next step, PBS and MTT solution in PBS (5 mg/mL) were added to each well to obtain a final MTT concentration of 0.5 mg/mL, and then the cells were incubated for 4 h (37 °C temperature, 5% CO2, 90–95% humidity). After the incubation period, the contents of each well were removed, 1 mL of DMSO was added to dissolve the formazan, and then the plate with the added DMSO was mixed for 5–10 min on a microplate shaker (Boeco, Hamburg, Germany). Then, 10 µL of Sorensen’s glycine buffer (a solution of 0.1 M glycine and 0.1 M sodium chloride adjusted to pH 10.5 with 0.1 M sodium hydroxide) was added. The absorbance of the obtained solution was immediately measured at a wavelength of λ = 570 nm using a Thermo Scientific Evolution 201 UV–VIS spectrophotometer (Thermo Fisher Scientific, Waltham, MA, USA). The absorbance result obtained in the control cells (without the addition of the tested compounds) was taken as 100%, while the viability of cells incubated with the tested compounds was presented as a percentage of the control value.
The study of the antiproliferative properties (intensity of [^3H]-thymidine incorporation into cell DNA) of the tested derivatives against tested cell lines (MCF-7, MDA-MB-231, MCF-10A) was performed after 24 h incubation with varied concentrations of the tested compounds in the medium (0.5–5 µM) in 6-well plates (baseline seeding density: 5 × 10^5 cells/well). After 24 h the medium was removed, the cells were washed with PBS (Corning, Kennebunk, ME, USA), and a fresh medium was added. […] Radioactivity was measured using the Scintillation Counter 1900 TR, TRI-CARB (Packard, Perkin Elmer, Inc., San Jose, CA, USA). The intensity of DNA biosynthesis in the analyzed cells was expressed in terms of dpm/well. The result of the radioactivity measurement in the control cells (without the addition of tested compounds) was taken as 100%, while the values of cells incubated with the tested compounds were presented as a percentage of the control value.

[2] = tested on: MCF-7 and MDA-MB-231 breast cancer cells; assay: Autophagy induction, summary statement over cell lines; conditions: vs EDAG-8; 0.5 and 1 µM, 24 h
Method: The effects of the novel selenoesters and a reference compound (cisplatin) at concentrations of 0.5 and 1 µM (after 24 h) on the activation of the autophagy process in MCF-7, MDA-MB-231, and MCF-10A cells were evaluated utilizing the Autophagy Assay kit, Red (ImmunoChemistry Technologies, Bloomington, MN, USA) via flow cytometry (flow cytometer from BD FACSCanto II, BD Biosciences Systems, San Jose, CA, USA). The entire assay was performed according to the manufacturer’s instructions. After drug treatment, unfixed cells were washed and resuspended in PBS at a concentration of 5 × 10^5 cells/mL. Then, 490 µL each of the cell suspension was taken, transferred to test tubes, and 10 µL of Autophagy Probe, Red solution (previously diluted 1:5 in PBS) was added and incubated (30 min, 37 °C, in the dark). After incubation, the cells were washed and resuspended in cellular assay buffer, before finally adding fixative at a ratio of 1:5 (v/v). After this step, the prepared samples were immediately measured using a flow cytometer (BD FACSCanto II; 10,000 events measured), and the percentage of cells with an occurring autophagy process was calculated using the FACSDiva 6.0 software (both from BD Biosciences Systems, San Jose, CA, USA). The equipment calibration was performed using the BD Cytometer Setup and Tracking Beads (BD Biosciences, San Diego, CA, USA).

[3] = tested on: MCF-7 and MDA-MB-231 breast cancer cells; assay: Western immunoblot of Bax, caspase 7 and 9, p53; conditions: 0.5 and 1 μM, 24 h
Method: (§1) Protein concentrations in the samples were determined using the Lowry method. Samples were prepared containing equal amounts of protein (30 μg/lane) and an appropriate amount of Laemmli buffer (120 mM Tris-HCl, 20% glycerol, 0.4% SDS, and 0.02% bromophenol blue, pH 6.8) containing 100 mM 1,4-dithiothreitol (DTT; Roche, Basel, Switzerland). Samples were denatured at 95 °C for 10 min. The proteins were separated using the SDS-PAGE method described by Laemmli. Proteins were separated on 12% SDS-PAGE gels. […] Transfer conditions were 250 mA, at 4-8 °C, overnight in freshly prepared Towbin buffer. Membranes were blocked with 5% non-fat dried milk (Santa Cruz Biotechnology, Dallas, Texas, USA) in TBS-T (20 mM Tris, 150 mM NaCl, 0.1% Tween-20, pH 7.6) for 1 h at room temperature with gentle shaking. After the blocking step, membranes were washed four times with TBS-T (4 × 15 min) and incubated with primary monoclonal antibodies (against β-actin, p53 (both from Santa Cruz Biotechnology, Dallas, TX, USA), Akt, AMPK (both from BD Transduction Laboratories, San Jose, CA, USA), Bax, caspase 7, and caspase 9 (all from Cell Signaling Technology, Danvers, MA, USA)). Membranes were incubated with primary antibodies overnight at 4 °C. […]

[4] = tested on: MCF-7 and MDA-MB-231 breast cancer cells; assay: Western immunoblot of Akt and AMPK; conditions: 0.5 and 1 μM, 24 h
Method: as §1

## CC(=O)C[Se]C(=O)c1ccc(C(=O)[Se]CC(C)=O)cc1 [EDAG-1, Se,Se-bis(2-oxopropyl) benzene-1,4-bis(carboselenoate)]
[1]
  IC50 at 24 h: 410 to 710 nM
[2]
  fold weaker pro-autophagic activity compared to the most active derivative: approximately 2 fold
[3]
  expression of Bax, caspase 7 and 9, p53 (Western blot, in words): slightly weaker effect

## CC(=O)C[Se]C(=O)c1cc(C(=O)[Se]CC(C)=O)cc(C(=O)[Se]CC(C)=O)c1 [EDAG-8, Se,Se,Se-tris-(2-oxopropyl) benzene-1,3,5-tris-(carboxyselenoate)]
[1]
  IC50 at 24 h: 410 to 710 nM
[3]
  expression of Bax, caspase 7 and 9, p53 (Western blot, in words): most active
[4]
  expression of Akt and AMPK (Western blot, in words): most active

## N.N.[Cl][Pt][Cl] [Cisplatin, reference compound]
[4]
  expression of Akt and AMPK (Western blot, in words): did not significantly affect
